Data as given in patent US9040563B2, “Dual inhibitors of farnesyltransferase and geranylgeranyltransferase I” (H. Lee Moffitt Cancer Center and Research Institute, Inc., priority 2010, dated 2015).

Key:
NCI-H460 = assay: MTT proliferation/viability assay; type: cell-based; conditions: Homo sapiens, NCI-H460, lung
Procedure: (§1) To determine if FGTI-2734 is more efficacious than FT or GGT-1 inhibitors, 10 human cancer pancreatic cell lines, 2 human breast cancer cell lines, 2 human lung cancer cell lines and one human prostate cancer cell line were treated with these inhibitors and determined their effects on the proliferation of these cells by MTT assay.

MDA-MB-231 = assay: MTT proliferation/viability assay; type: cell-based; conditions: Homo sapiens, MDA-MB-231, MDA-MB-231, breast
Procedure: as §1

K-Ras prenylation = assay: Western blot of oncogenic K-Ras processing/prenylation; type: cell-based; conditions: NIH-3T3 overexpressing oncogenic mutant K-Ras (FIG. 14) and MDA-MB-231 (FIG. 15)
Procedure: (§2) Testing has shown that the dual farnesyltransferase and geranygeranyltransferase-I inhibitors are effective on pancreatic tumors (90% of all cases), colonic tumors (30% of all cases), lung tumors (30% of all cases), and breast tumors (10% of all cases). NIH-3T3 cells that overexpress oncogenic mutant K-Ras, seen in FIG. 14, and MDA-MB-231 breast cancer cells with a naturally occurring K-Ras mutation, seen in FIG. 15, were treated with indicated concentrations of FGTI-2734, GGTI-2417 or FTI-2153. FGTI-2734 but not FTI-2153 or GGTI-2417 inhibited K-Ras prenylation. As expected, GGTI-2417 inhibited the processing of Rap1 but not HDJ-2 whereas FTI-2153 inhibited the processing of HDJ-2 but not Rap1.
Mammalian target of rapamycin (mTOR) is a serine/threonine phosphatidylinositol 3-kinase-related kinase responsible for cell growth, proliferation, cell survival, protein synthesis, and transcription. Alteration of the mTOR pathway, either through activation of oncogenes or inactivation of tumor suppressors, disrupts a signaling equilibrium and causes malignant transformation. Studies have shown that phosphorylated S6 (pS6) is related to mTOR pathway alterations, and is useful in determining PI3K-based cancer therapies (Aziz, et al. Phosphatidylinositol-3-Kinase as a Therapeutic Target in Melanoma. Clin Cancer Res. 2009, 15; 3029-3036). […]

HDJ-2 farnesylation = assay: Western blot of HDJ-2 farnesylation/processing (gel shift) in treated cells; type: cell-based; conditions: MiaPaca, MDA-MB-468 and MDA-MB-231 human cancer cells; FIG. 13
Procedure: (§3) The ability of FGTI-2734 to inhibit HDJ-2 farnesylation and Rap-1A geranylgeranylation in human cancer cells was determined next. To this end, the MiaPaca pancreatic cancer cell line and 2 breast cancer cell lines (MDA-MB-468 and MDA-MB-231) were treated with various concentration of the dual inhibitor FGTI-2734, the GGT-1 inhibitor GGTI-2418 or the FT inhibitor FTI-2153 and processed for Western blotting.
as §2
Mammalian target of rapamycin (mTOR) is a serine/threonine phosphatidylinositol 3-kinase-related kinase responsible for cell growth, proliferation, cell survival, protein synthesis, and transcription. […]

hFTase = hFTase (Homo sapiens, UniProt P49354+P49356); assay: In vitro hFTase inhibition: incorporation of [3H]FPP into recombinant H-Ras-CVLS; type: biochemical
survivin = assay: Western blot of survivin and PARP (apoptosis); type: cell-based; conditions: human cancer cells
Text: (§4) Mammalian target of rapamycin (mTOR) is a serine/threonine phosphatidylinositol 3-kinase-related kinase responsible for cell growth, proliferation, cell survival, protein synthesis, and transcription. Alteration of the mTOR pathway, either through activation of oncogenes or inactivation of tumor suppressors, disrupts a signaling equilibrium and causes malignant transformation. Studies have shown that phosphorylated S6 (pS6) is related to mTOR pathway alterations, and is useful in determining PI3K-based cancer therapies (Aziz, et al. Phosphatidylinositol-3-Kinase as a Therapeutic Target in Melanoma. Clin Cancer Res. 2009, 15; 3029-3036). Two breast adenocarcinoma and a pancreatic carcinoma cell line were treated with indicated concentrations of FGTI-2734, GGTI-2417 or FTI-2153. Protein extracts were run on a Western Blot using antibody against pS6 (ser240/244) (Cell Signaling Technology, Inc., Danvers, Mass.). […] Antibodies used were HDJ-2 (Lab Vision Corporation, Fremont, Calif.), Rapt (Santa Cruz Biotechnology, Santa Cruz, Calif.), K-Ras (EMD4 Biosciences (Calbiochem), Gibbstown, N.J.), P27 (BD Biosciences, San Jose, Calif.), Actin (Sigma-Aldrich, St. Louis, Mo.), Survivin (Santa Cruz Biotechnology, Santa Cruz, Calif.), and PARP (Roche, Indianapolis, Ind.).

[1] = test system: Rap-1A geranylgeranylation; assay: Western blot of Rap-1A geranylgeranylation/processing (antibody to un-geranylgeranylated Rap-1A) in treated cells; type: cell-based; conditions: MiaPaca, MDA-MB-468 and MDA-MB-231 human cancer cells; FIG. 13
Procedure: as §3, §2
Mammalian target of rapamycin (mTOR) is a serine/threonine phosphatidylinositol 3-kinase-related kinase responsible for cell growth, proliferation, cell survival, protein synthesis, and transcription. Alteration of the mTOR pathway, either through activation of oncogenes or inactivation of tumor suppressors, disrupts a signaling equilibrium and causes malignant transformation. Studies have shown that phosphorylated S6 (pS6) is related to mTOR pathway alterations, and is useful in determining PI3K-based cancer therapies (Aziz, et al. Phosphatidylinositol-3-Kinase as a Therapeutic Target in Melanoma. Clin Cancer Res. 2009, 15; 3029-3036). Two breast adenocarcinoma and a pancreatic carcinoma cell line were treated with indicated concentrations of FGTI-2734, GGTI-2417 or FTI-2153. Protein extracts were run on a Western Blot using antibody against pS6 (ser240/244) (Cell Signaling Technology, Inc., Danvers, Mass.). […]

HPNE = assay: MTT proliferation/viability assay; type: cell-based, human; conditions: Homo sapiens, pancreas
Procedure: as §1

Capan-2 = assay: MTT proliferation/viability assay; type: cell-based, human
Procedure: as §1

BxPC3 = assay: MTT proliferation/viability assay; type: cell-based, human
Procedure: as §1

Panc-1 = assay: MTT proliferation/viability assay; type: cell-based, human; conditions: Homo sapiens, Panc-1, pancreas
Procedure: as §1

HPDE-C7-Kras = assay: MTT proliferation/viability assay; type: cell-based, human; conditions: pancreas
Procedure: as §1

ASPC-1 = assay: MTT proliferation/viability assay; type: cell-based, human
Procedure: as §1

MiaPaca = assay: MTT proliferation/viability assay; type: cell-based, human; conditions: Homo sapiens, MIA PaCa-2, pancreas
Procedure: as §1

HPNE-K-ras = assay: MTT proliferation/viability assay; type: cell-based, human; conditions: Homo sapiens, pancreas
Procedure: as §1

DU-145 = assay: MTT proliferation/viability assay; type: cell-based, human; conditions: Homo sapiens, DU-145, DU-145, prostate
Procedure: as §1

SW1990 = assay: MTT proliferation/viability assay; type: cell-based, human
Procedure: as §1

A549 = assay: MTT proliferation/viability assay; type: cell-based, human; conditions: Homo sapiens, A549, lung
Procedure: as §1

MCF-7 = assay: MTT proliferation/viability assay; type: cell-based, human; conditions: Homo sapiens, MCF7, MCF-7, breast
Procedure: as §1

HPDE-C7 = assay: MTT proliferation/viability assay; type: cell-based, human; conditions: Homo sapiens, HPDE-C7, pancreas
Procedure: as §1

[2] = test system: mTOR signaling pathway (pS6); assay: Western blot of pS6 (ser240/244), mTOR pathway signaling; type: cell-based, human; conditions: two breast adenocarcinoma and a pancreatic carcinoma cell line; FIG. 16
Text: as §4

p27Kip1 = assay: Western blot of p27Kip1 protein levels; type: cell-based; conditions: human cancer cells; FIG. 17
Text: as §4

GGTase-I = GGTase-I (Homo sapiens, UniProt P49354+P53609); assay: In vitro GGTase-I inhibition: incorporation of [3H]GGPP into recombinant H-Ras-CVLL; type: biochemical; conditions: average of n = 3 unless stated, errors are standard deviations, read-out: GGTase-1 IC50

IC50 (NCI-H460): 7.19 ± 1.18 µM | IC50 (MDA-MB-231): 12.2 ± 0.97 µM | selectivity (ratio of GGTase-I to FTase IC50s) (hFTase; GGTase-I IC50 / hFTase IC50): 2.1 | IC50 (hFTase; in vitro, average of three independent assays (n = 3) unless stated, errors are standard deviations): 0.25 ± 0.19 µM | IC50 (BxPC3; BxPC3, pancreas, listed as FGTI-2734): 17.8 µM | IC50 (BxPC3; Homo sapiens, BXPC-3, BxPC3, pancreas): 17.2 µM | IC50 (Panc-1): 20.5 ± 3.18 µM | IC50 (ASPC-1; ASPC-1, pancreas, listed as FGTI-2734): 12.6 µM | IC50 (ASPC-1; Homo sapiens, ASPC1, ASPC-1, pancreas): 11.2 µM | IC50 (MiaPaca): 2.65 ± 0.3 µM | IC50 (DU-145): 11.2 ± 6.09 µM | IC50 (SW1990; Homo sapiens, SW1990, SW1990, pancreas): 26.3 µM | IC50 (SW1990; SW1990, pancreas, listed as FGTI-2734): 24.2 µM | IC50 (A549): 13.2 ± 3.64 µM | IC50 (MCF-7): 4.42 ± 0.92 µM | IC50 (GGTase-I): 0.52 ± 0.09 µM
Structure (SMILES): Cn1cncc1CN(CCN(CC1CCCCC1)S(=O)(=O)c1ccccn1)c1ccc(C#N)cc1F [21b, N-(2-((4-cyano-2-fluorophenyl)((1-methyl-1H-imidazol-5-yl)methyl)amino)ethyl)-N-(cyclohexylmethyl)pyridine-2-sulfonamide]
inhibition of K-Ras prenylation (K-Ras prenylation): inhibited | inhibition of HDJ-2 farnesylation (HDJ-2 farnesylation): inhibited | survivin protein levels (survivin; FIG. 18): reduces | apoptosis (survivin; FIG. 18 (PARP)): induces apoptosis | inhibition of Rap-1A geranylgeranylation [1]: inhibited | IC50 (HPNE): 13.5 ± 1.72 µM | IC50 (Capan-2; Capan-2, pancreas, listed as FGTI-2734): 30 µM | IC50 (Capan-2; Homo sapiens, Capan-2, Capan-2, pancreas): 24 µM | IC50 (HPDE-C7-Kras; Homo sapiens): 6.6 µM | IC50 (HPDE-C7-Kras; listed as FGTI-2734): 8.7 µM | IC50 (HPNE-K-ras): 14.7 ± 0.89 µM | IC50 (HPDE-C7): 7.5 µM | mTOR pathway signaling, levels of pS6 [2]: reducing the levels of pS6 | p27Kip1 protein levels (p27Kip1): induces
